CCOC(=O)c1ccc(N)cc1
solubility (mole fraction)
Conditions | in ethanol | in isobutanol | in isopentanol | in methanol | in n-butanol | in n-propanol
283.15 K | 0.0522 | 0.0281 | 0.0335 | 0.0528 | 0.037 | 0.0441
287.15 K | 0.0611 | 0.0328 | 0.0371 | 0.0629 | 0.0467 | 0.0521
291.15 K | 0.0712 | 0.0392 | 0.0439 | 0.075 | 0.0562 | 0.0605
295.15 K | 0.0831 | 0.048 | 0.0529 | 0.0863 | 0.0668 | 0.071
299.15 K | 0.0982 | 0.0583 | 0.0632 | 0.103 | 0.0821 | 0.085
303.15 K | 0.115 | 0.071 | 0.0757 | 0.12 | 0.0981 | 0.101
307.15 K | 0.135 | 0.0879 | 0.0917 | 0.141 | 0.118 | 0.121
311.15 K | 0.16 | 0.111 | 0.115 | 0.168 | 0.146 | 0.148
315.15 K | 0.191 | 0.14 | 0.145 | 0.2 | 0.176 | 0.179
318.15 K | 0.221 | 0.168 | 0.172 | 0.227 | 0.207 | 0.211
321.15 K | 0.251 | 0.204 | 0.206 | 0.259 | 0.241 | 0.245
324.15 K | 0.289 | 0.25 | 0.252 | 0.296 | 0.281 | 0.284
327.15 K | 0.328 | 0.303 | 0.305 | 0.335 | 0.323 | 0.326

Reference: BigSolDB 2.1
